Two compounds from patent US11464749B2, “Bismuth-thiol compositions and methods of use” (Microbion Corporation, priority 2018, dated 2022) can be followed below.

The subject of assay [1] is Pseudomonas aeruginosa strain PA01. The assay can be described thus: Bacterial killing curves with and without CF patient sputum.
Another assay deals with P. aeruginosa. The assay can be described thus: FIC checkerboard assay. The assay is classed as cell-based. To be noted: during FIC testing.
For another assay, the system named is B. cepacia. The assay can be described thus: FIC checkerboard assay. The class given is cell-based. To be noted: during FIC testing.
The next assay relates to B. cenocepacia. Briefly: FIC checkerboard assay. Particulars: during FIC testing. The class given is cell-based.
Another assay deals with Klebsiella pneumoniae. Briefly: Broth microdilution MIC (Example 12). Background: In broth dilution the organism is exposed to a series of concentrations in liquid medium.
Another assay relates to Pseudomonas aeruginosa. Briefly: Broth microdilution MIC (Example 12).
The test system of a further assay is Acinetobacter baumannii. Briefly: Broth microdilution MIC (Example 12).

Values after ≈ are worked out from the molar mass of the structure shown.

With `C1C[S][Bi]([S]CC[S][Bi]2[S]CC[S]2)[S]1` [BisEDT, bismuth-1,2-ethanedithiol], in assay [1] (0.1 μg/mL), the “bactericidal activity against PA01” value is “not bactericidal”. For the same compound, the “effect of CF patient sputum on bactericidal activity” value in assay [1] (10% CF patient sputum) is listed as “partially inhibited”.
In general, MIC refers to the least concentration at which growth counts as inhibited. As to `C[C@@H](O)[C@H]1C(=O)N2C(C(=O)O)=C(S[C@@H]3CN[C@H](C(=O)N(C)C)C3)[C@H](C)[C@H]12` [MEM], the MIC amounted to 1 µg/mL in the assay with P. aeruginosa (P. aeruginosa isolate 103 (ATCC 25922), each agent tested alone, one replicate, for QC); 16 µg/mL with P. aeruginosa (P. aeruginosa isolate 6322 (MEM-R, TOB-R, AMK-R, CIP-R, AZT-R)); 8 µg/mL with P. aeruginosa (P. aeruginosa isolate 6977 (MEM-I, TOB-R, CIP-R, AZT-I)); 16 µg/mL in the assay on P. aeruginosa (P. aeruginosa isolate 7745 (MEM-R, CIP-R, AZT-R)); 32 µg/mL in the assay on P. aeruginosa (P. aeruginosa isolate 8798 (MEM-R, TOB-R, AMK-R, CIP-R, AZT-R, COL-R)); 1 µg/mL with P. aeruginosa (P. aeruginosa isolate 9108 (CIP-R, AZT-I)). The MIC is 4 µg/mL in the assay with B. cepacia (B. cepacia isolate 0546); 4 µg/mL with B. cepacia (B. cepacia isolate 1793); 4 µg/mL in the assay with B. cenocepacia (B. cenocepacia isolate 0548 (CIP-R)); 2 µg/mL with B. cenocepacia (B. cenocepacia isolate 0813 (CIP-I)); 8 µg/mL (≈ 20.9 µM) in the assay on Klebsiella pneumoniae (K. pneumoniae ATCC BAA-1705, ESBL/KPC); greater than 8 µg/mL in the assay on Klebsiella pneumoniae (K. pneumoniae CDC 112, KPC). Also, the MIC against Klebsiella pneumoniae (K. pneumoniae CDC 113, ESBL/KPC) was greater than 8 µg/mL; against Klebsiella pneumoniae (K. pneumoniae CDC 115, ESBL/KPC), greater than 8 µg/mL; with Klebsiella pneumoniae (K. pneumoniae CDC 120, ESBL/KPC) it was greater than 8 µg/mL; with Klebsiella pneumoniae (K. pneumoniae CDC 126, ESBL/KPC) it was 4 µg/mL (≈ 10.4 µM); in the assay with Klebsiella pneumoniae (K. pneumoniae CDC 129, ESBL/KPC) it was 8 µg/mL (≈ 20.9 µM); in the assay on Klebsiella pneumoniae (K. pneumoniae CDC 135, ESBL/VIM), 1 µg/mL (≈ 2.61 µM). Besides, the MIC against Klebsiella pneumoniae (K. pneumoniae CDC 138, ESBL/NDM) was greater than 8 µg/mL; against Klebsiella pneumoniae (K. pneumoniae CDC 158, ESBL/NDM/OXA), greater than 8 µg/mL; against Klebsiella pneumoniae (K. pneumoniae MMX 9029, ESBL), 0.015 µg/mL (≈ 0.0391 µM); against Pseudomonas aeruginosa (P. aeruginosa CDC 230, VIM/OXA), greater than 8 µg/mL; in the assay on Pseudomonas aeruginosa (P. aeruginosa CDC 231, KPC/OXA) it was greater than 8 µg/mL; against Pseudomonas aeruginosa (P. aeruginosa CDC 241, IMP/OXA), greater than 8 µg/mL. The minimal inhibitory concentration (MIC) against Pseudomonas aeruginosa (P. aeruginosa CDC 246, NDM/OXA) was greater than 8 µg/mL; in the assay with Pseudomonas aeruginosa (P. aeruginosa CDC 250, NDM/OXA) it was greater than 8 µg/mL; with Pseudomonas aeruginosa (P. aeruginosa CDC 356, KPC), greater than 8 µg/mL; in the assay with Pseudomonas aeruginosa (P. aeruginosa CDC 439, IMP) it was greater than 8 µg/mL; against Pseudomonas aeruginosa (P. aeruginosa CDC 444, VIM) it was greater than 8 µg/mL; against Pseudomonas aeruginosa (P. aeruginosa CDC 457, VIM) it was greater than 8 µg/mL. The MIC is greater than 8 µg/mL against Pseudomonas aeruginosa (P. aeruginosa CDC 516, KPC/AmpC); greater than 8 µg/mL in the assay on Pseudomonas aeruginosa (P. aeruginosa CDC 518, KPC/AmpC); greater than 8 µg/mL against Acinetobacter baumannii (A. baumannii CDC 273, ESBL/OXA); greater than 8 µg/mL in the assay with Acinetobacter baumannii (A. baumannii CDC 274, ESBL/OXA); greater than 8 µg/mL against Acinetobacter baumannii (A. baumannii CDC 275, ESBL/OXA); greater than 8 µg/mL against Acinetobacter baumannii (A. baumannii CDC 277, ESBL/OXA). Also, the MIC is greater than 8 µg/mL with Acinetobacter baumannii (A. baumannii CDC 284, ESBL/OXA); 8 µg/mL (≈ 20.9 µM) in the assay on Acinetobacter baumannii (A. baumannii CDC 307, OXA); 8 µg/mL (≈ 20.9 µM) with Acinetobacter baumannii (A. baumannii CDC 308, ESBL/OXA); greater than 8 µg/mL against Acinetobacter baumannii (A. baumannii CDC 311, OXA); 4 µg/mL (≈ 10.4 µM) against Acinetobacter baumannii (A. baumannii CDC 312, OXA); greater than 8 µg/mL against Acinetobacter baumannii (A. baumannii CDC 313, ESBL/OXA). The compound also displayed an MIC in the assay on Acinetobacter baumannii (A. baumannii NCTC 13304, OXA) greater than 8 µg/mL.
